Values of other authors as cited in patent publication US20250163027A1, “GPR88-RECEPTOR-AGONIST” (Boehringer Ingelheim International GmbH, priority 2023, published 2025).

Molecular target: hGPR88 receptor (Homo sapiens, UniProt Q9GZN0)
Details: value marked * : cAMP assay, not BRET

hGPR88 receptor, sequence (Q9GZN0 whole entry): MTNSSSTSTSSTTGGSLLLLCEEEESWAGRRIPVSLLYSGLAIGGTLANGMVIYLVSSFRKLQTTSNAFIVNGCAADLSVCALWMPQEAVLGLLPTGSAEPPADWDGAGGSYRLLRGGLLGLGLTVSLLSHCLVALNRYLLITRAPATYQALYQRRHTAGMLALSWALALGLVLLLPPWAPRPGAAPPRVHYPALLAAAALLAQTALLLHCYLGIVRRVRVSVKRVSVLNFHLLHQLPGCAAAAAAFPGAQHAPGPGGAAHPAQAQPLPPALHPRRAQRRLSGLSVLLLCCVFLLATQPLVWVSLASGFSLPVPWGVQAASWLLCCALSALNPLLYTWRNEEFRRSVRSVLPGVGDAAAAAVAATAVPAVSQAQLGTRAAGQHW

In the case of `COCc1ccc(-c2ccc(N(CC(C)(C)O)C(=O)C3CC3c3ccccn3)cc2)cc1` (stereo not shown) [Ex 141 in WO2022/129933], the EC50 is listed as greater than 5 µM.
